The text below walks through data of ChEMBL document CHEMBL3124752, “Small molecule disruptors of the glucokinase-glucokinase regulatory protein interaction: 1. Discovery of a novel tool compound for in vivo proof-of-concept” (J Med Chem, 2014).

Data set [1] concerns the target T1, Glucokinase regulatory protein (Rattus norvegicus, UniProt Q07071).
T1 sequence (Q07071 whole entry): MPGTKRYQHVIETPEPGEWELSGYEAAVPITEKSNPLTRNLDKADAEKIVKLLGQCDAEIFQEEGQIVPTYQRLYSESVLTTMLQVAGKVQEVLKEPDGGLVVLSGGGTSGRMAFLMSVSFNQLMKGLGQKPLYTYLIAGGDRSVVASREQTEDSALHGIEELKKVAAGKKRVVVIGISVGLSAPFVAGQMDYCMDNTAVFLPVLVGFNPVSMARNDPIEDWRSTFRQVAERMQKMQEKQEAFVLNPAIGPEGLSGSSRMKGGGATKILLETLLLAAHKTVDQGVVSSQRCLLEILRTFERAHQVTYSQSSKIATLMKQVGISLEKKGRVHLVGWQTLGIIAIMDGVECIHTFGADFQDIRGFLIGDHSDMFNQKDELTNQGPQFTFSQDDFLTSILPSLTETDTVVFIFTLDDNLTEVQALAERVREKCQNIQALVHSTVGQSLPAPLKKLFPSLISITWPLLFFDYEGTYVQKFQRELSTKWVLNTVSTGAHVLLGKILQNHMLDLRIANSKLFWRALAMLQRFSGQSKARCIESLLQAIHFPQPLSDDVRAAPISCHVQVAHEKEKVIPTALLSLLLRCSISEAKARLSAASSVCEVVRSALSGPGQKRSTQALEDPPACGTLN
Description: Inhibition of GKRP-GK interaction in rat primary hepatocytes assessed as translocation of GK from nucleus to cytoplasm preincubated for 20 mins followed by glucose addition measured after 40 mins by fluorescence assay. The class given is cell-based, Hepatocyte.

Data set [2] in a line: Intrinsic clearance in Sprague-Dawley rat liver microsomes at 1 uM after 30 mins in presence of NADPH. The class given is ADME. The conditions noted are these: read-out: CLH. On the technique in general: Microsomes from liver hold many membrane-bound enzymes, among them those of drug oxidation.
In a further data set the target is T2, Hexokinase-4 (Homo sapiens, UniProt P35557).
T2 sequence (P35557 whole entry): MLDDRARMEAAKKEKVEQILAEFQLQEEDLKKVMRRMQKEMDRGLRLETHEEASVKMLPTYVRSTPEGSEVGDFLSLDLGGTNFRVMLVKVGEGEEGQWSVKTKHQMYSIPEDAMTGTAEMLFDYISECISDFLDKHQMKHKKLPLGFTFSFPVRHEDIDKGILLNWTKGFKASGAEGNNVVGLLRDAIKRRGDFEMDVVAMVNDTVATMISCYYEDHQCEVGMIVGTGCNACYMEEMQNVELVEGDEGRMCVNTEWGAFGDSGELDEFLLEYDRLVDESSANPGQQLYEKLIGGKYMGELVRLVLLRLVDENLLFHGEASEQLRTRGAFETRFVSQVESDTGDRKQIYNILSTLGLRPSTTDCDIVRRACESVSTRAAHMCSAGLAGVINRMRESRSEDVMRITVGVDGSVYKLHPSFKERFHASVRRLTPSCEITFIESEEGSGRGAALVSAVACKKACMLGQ
The experiment in a line: Activation of human glucokinase.

A short description of data set [3]: Fraction unbound in Sprague-Dawley rat plasma at 2 mg/kg, iv and 10 mg/kg, po. The class given is ADME, organism-based. The following applies: other: intravenous and oral.
The species entered for data set [4] is Rattus norvegicus. Description: Toxicity in Zucker diabetic fatty rat assessed as change in plasma insulin level. Type of data set: organism-based. The conditions noted are these: in vivo.
Data set [5] can be described thus: Oral bioavailability in Sprague-Dawley rat at 10 mg/kg. Type of data set: ADME, organism-based. The following applies: in vivo.
Data set [6] relates to Rattus norvegicus. The experiment in a line: Toxicity in Wistar rat assessed as induction of hypoglycemia at 100 mg/kg, po. The following applies: in vivo. Type of data set: organism-based. On the set-up: dose 100 mg/kg, route oral.
The species named for data set [7] is Rattus norvegicus. The experiment in a line: fCmax in Sprague-Dawley rat. Type of data set: ADME, organism-based. The following applies: in vivo.
The nature of data set [8]: Cmax in Sprague-Dawley rat at 10 mg/kg, po. Type of data set: ADME, organism-based. On the set-up: dose 10 mg/kg, route oral. The conditions noted are these: in vivo.
Data set [9] is filed under the species Rattus norvegicus. The experiment in a line: Toxicity in Zucker diabetic fatty rat assessed as change in plasma triglyceride level. The class given is organism-based. The following applies: in vivo.
Data set [10] deals with Rattus norvegicus. The experiment in a line: fCmax in Wistar rat at 100 mg/kg, po. On the set-up: dose 100 mg/kg, route oral. Type of data set: ADME, organism-based. The following applies: in vivo.
Data set [11] is described as follows: Volume of distribution at steady state in Sprague-Dawley rat at 2 mg/kg, iv. The following applies: in vivo, read-out: Vdss. On the set-up: dose 2 mg/kg, route intravenous. The class given is ADME, organism-based.
A short description of data set [12]: Clearance in Sprague-Dawley rat at 2 mg/kg, iv. The class given is ADME, organism-based. More on the design: dose 2 mg/kg, route intravenous. The following applies: in vivo.

For `C[C@](O)(c1ccc(N2CCN(S(=O)(=O)c3cccs3)C[C@@H]2CC2CCOCC2)cc1)C(F)(F)F`, the EC50 in data set [1] is 4.76 µM.

As for `O=S(=O)(c1cccs1)N1CCN(c2ccc(C(O)(C(F)(F)F)C(F)(F)F)cc2)[C@@H](CC2CCOCC2)C1`, the EC50 in data set [1] amounted to 5.47 µM.

On to `C[C@H]1COCCN1C[C@H]1CN(S(=O)(=O)c2cccs2)CCN1c1ccc([C@@](C)(O)C(F)(F)F)cc1`, for which the microsomal CLint at 1 µM in data set [2] stood at 608 µL/min/mg. Also, the EC50 at Hexokinase-4 was above 50 µM; in [1], 0.082 µM. Further, in [3], the fraction unbound was found to be 0.037. Also, the Activity result was “Non-toxic” in the data set listed under Rattus norvegicus [4], “Toxic” in the data set on Rattus norvegicus [6] and “Non-toxic” in the data set listed under Rattus norvegicus [9]. Also, the bioavailability in [5] worked out at 7.86%. The figures for the fCmax in the data set filed under Rattus norvegicus [7] and in the data set on Rattus norvegicus [10] were 0.004 µM and 0.056 µM, respectively. The Cmax in data set [8] is 110 nM.

As for `C[C@H]1COCCN1C[C@H]1CN(S(=O)(=O)c2cccs2)CCN1c1ccc(C(O)(C(F)(F)F)C(F)(F)F)cc1`, the EC50 in data set [1] stood at 1.81 µM.

`O=S(=O)(c1cccs1)N1CCN(c2ccc(C(O)(C(F)(F)F)C(F)(F)F)cc2)CC1` gave an EC50 on Hexokinase-4 above 50 µM. In addition, the Vd in data set [11] turned out to be 6.81 L/kg. The same compound had a fraction unbound in data set [3] of 0.0062. In addition, the clearance in [12] is 44 mL/min/kg. The bioavailability in [5] came to 28%. The same compound registered a Cmax in data set [8] of 350 nM.

As to `C[C@H]1COCCN1C[C@H]1CN(S(=O)(=O)c2cccs2)CCN1c1ccc([C@](C)(O)C(F)(F)F)cc1`, the EC50 in data set [1] was determined as 0.22 µM.

As for `C[C@@](O)(c1ccc(N2CCN(S(=O)(=O)c3cccs3)C[C@@H]2CC2CCOCC2)cc1)C(F)(F)F`, the EC50 in [1] was found to be 0.89 µM.

Turning to `O=S(=O)(c1cccs1)N1CCN(c2ccc(C(O)(C(F)(F)F)C(F)(F)F)cc2)[C@@H](CN2CCOCC2)C1`, the EC50 in data set [1] is 3.99 µM.

Broadly, the EC50 is the concentration needed to bring the measured effect to its halfway point. What is called fraction unbound is free concentration divided by total concentration. A low value points to little free substance. Usually bioavailability stands for dose-corrected exposure relative to a reference, in per cent. Low readings indicate poor availability, high ones good availability. As usually defined, the Cmax is the maximum level reached in the sampled fluid or tissue. As usually defined, the clearance is the rate of elimination divided by the concentration. Read a low clearance as a low capacity for elimination.
